The assay deals with endothelin converting enzyme. The assay can be described thus: Effects of various inhibitors on the activity of converting big endothelin-1 to endothelin-1 (residual enzymatic activity). The format is biochemical, human. Conditions: 37° C., 30 minutes preincubation, pH 7.0, untreated enzyme = 100. As for the experimental part: 15 μl of a 20 nmol/ml big endothelin-1 solution was added to 0.3 ml of an enzyme solution (10 mM tris-hydrochloric acid-0.15M sodium chloride buffer; pH 7.0), and the mixture was reacted at 37° C. for 6 hours. After completion of the reaction, 6 μl of a 0.1M EDTA solution was added to terminate the reaction.
Subsequently, the resultant endothelin-1 was assayed according to a sandwich enzyme immunoassay (EIA) method. An enzymatic activity of converting 1 pmol of big endothelin-1 to endothelin-1 per hour under the above-described reaction conditions is termed 1 U (unit).
A sample and an endothelin standard solution of a predetermined concentration were respectively applied to a 96-hole microplate on which anti-endothelin monoclonal antibody had been immobilized to thereby cause the reaction. After washing the microplate, peroxidase-labeled anti-endothelin polyclonal antibody was added to thereby cause the reaction. After washing the microplate, activity of bound peroxidase was assayed. Endothelin-1 in the sample was assayed based on the calibration curve drawn by using endothelin standard solutions having a predetermined concentration of endothelin.
The enzyme of the invention was tested for the effects of various inhibitors against the activity of converting big endothelin-1 to endothelin-1.
The enzyme was incubated in 0.3 ml of a reaction solution (10 mM tris-hydrochloric acid-0.15M sodium chloride buffer; pH 7.0) containing various inhibitors at 37° C. for 30 minutes, and the residual enzymatic activity was measured in the above-described manner. Residual activities in the presence of various inhibitors are shown in Table 1 as relative activity taking the activity of untreated enzyme as 100.

The structures appear in SMILES notation.

The values that follow come from patent publication US5468633A, “Human endothelin converting enzyme obtained from blood or placenta” (Nisshin Flour Milling Co., Ltd., priority 1993, dated 1995).

As for `CC(C)C[C@H](NC(=O)[C@@H](NC(=O)N[C@@H](Cc1ccccc1)C(=O)O)[C@@H]1CCN=C(N)N1)C(=O)N[C@H](C=O)Cc1ccccc1` [Chymostatin], the “Relative Activity (%)” value (inhibitor 0.01 mM) was found to be 20%. As for `O=S(=O)(F)Cc1ccccc1` [Phenylmethanesulfonyl fluoride], the “Relative Activity (%)” value (inhibitor 1 mM) is 7%. On to `CC(C)C[C@H](NP(=O)(O)O[C@@H]1O[C@@H](C)[C@H](O)[C@@H](O)[C@H]1O)C(=O)N[C@@H](Cc1c[nH]c2ccccc12)C(=O)O` [Phosphoramidon], for which the “Relative Activity (%)” value (inhibitor 0.1 mM) was 0%. With `O=C(O)CNC(=O)C(CS)Cc1ccccc1` (stereo not shown) [Thiorphan], the “Relative Activity (%)” value (inhibitor 0.1 mM) was 0%.
